Source: patent US20100273772A1, “Bisaryl Alkynylamides as Negative Allosteric Modulators of Metabotropic Glutamate Receptor 5 (MGLUR5)” (Wyeth LLC, priority 2009, published 2010)

Assays:
rat mGluR5 receptor = target: T1, rat mGluR5 receptor (Rattus norvegicus, UniProt P31424); assay: [3H]-MPEP binding HEK-293 cell membranes expressing a rat mGluR5 receptor; conditions: displacement of 4 nM [3H]-MPEP, HEK-293 cell membranes expressing rat mGluR5, 60 minute at room temperature; read-out: mGluR5 Ligand Binding DR Ki
T1 construct: expressed in transfected cells; host or cells: HEK-293
T1 sequence (P31424 21-1203): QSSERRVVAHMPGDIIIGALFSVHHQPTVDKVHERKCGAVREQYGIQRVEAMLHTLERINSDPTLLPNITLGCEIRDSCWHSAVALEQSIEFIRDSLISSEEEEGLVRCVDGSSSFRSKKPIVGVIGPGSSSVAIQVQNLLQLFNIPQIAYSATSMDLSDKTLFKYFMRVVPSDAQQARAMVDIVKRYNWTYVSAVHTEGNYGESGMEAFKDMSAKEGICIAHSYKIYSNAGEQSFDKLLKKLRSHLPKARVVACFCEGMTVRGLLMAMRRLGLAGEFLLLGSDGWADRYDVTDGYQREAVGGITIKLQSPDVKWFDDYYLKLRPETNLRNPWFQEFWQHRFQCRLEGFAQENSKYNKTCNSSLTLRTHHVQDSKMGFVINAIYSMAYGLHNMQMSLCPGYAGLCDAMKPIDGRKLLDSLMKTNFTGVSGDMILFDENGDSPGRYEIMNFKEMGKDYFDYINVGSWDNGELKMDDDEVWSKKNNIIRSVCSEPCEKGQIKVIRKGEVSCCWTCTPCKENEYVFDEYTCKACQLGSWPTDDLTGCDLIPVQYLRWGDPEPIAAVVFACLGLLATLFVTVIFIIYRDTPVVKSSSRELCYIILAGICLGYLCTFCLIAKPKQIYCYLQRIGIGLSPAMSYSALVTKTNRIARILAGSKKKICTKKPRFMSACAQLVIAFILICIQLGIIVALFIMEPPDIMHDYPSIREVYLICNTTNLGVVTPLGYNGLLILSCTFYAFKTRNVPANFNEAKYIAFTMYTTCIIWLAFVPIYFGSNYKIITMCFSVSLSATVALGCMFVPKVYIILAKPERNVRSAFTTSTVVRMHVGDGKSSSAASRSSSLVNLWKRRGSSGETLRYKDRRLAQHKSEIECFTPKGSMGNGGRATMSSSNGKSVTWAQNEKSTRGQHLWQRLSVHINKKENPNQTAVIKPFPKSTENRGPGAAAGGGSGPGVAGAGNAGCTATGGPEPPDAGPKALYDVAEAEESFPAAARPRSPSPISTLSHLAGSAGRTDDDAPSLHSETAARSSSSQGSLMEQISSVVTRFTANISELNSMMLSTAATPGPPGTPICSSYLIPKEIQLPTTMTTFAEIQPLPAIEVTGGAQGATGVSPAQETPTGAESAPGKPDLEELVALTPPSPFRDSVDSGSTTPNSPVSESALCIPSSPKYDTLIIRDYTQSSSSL
Experimental: TITLE: [^3H]-MPEP binding HEK-293 cell membranes expressing a rat mGluR5 receptor. PURPOSE: To identify high affinity compounds at the rat mGluR5 receptor based on their ability to displace the mGluR5 negative allosteric modulator, MPEP.
mGluR5 expressing HEK-293 cells are scraped off the plate, transferred to centrifuge tubes, and washed twice by centrifugation (2000 rpm for 10 min., 4° C.) in buffer (50 mM Tris pH 7.5). The resulting pellets are aliquoted and placed at −80° C. On the day of assay, the cells are thawed on ice, and resuspended in buffer. The binding assay is performed in a 96 well microtiter plate in a total volume of 250 μL. Non-specific binding is determined in the presence of 10 μM MPEP. Binding reaction includes a final radioligand [^3H]-MPEP concentration of 4 nM and 12-25 ug membrane protein per well. Following a 60 minute incubation at room temperature, the reaction is terminated by the addition of ice cold buffer and rapid filtration through a GF/B filter presoaked for 30 minutes in 0.5% PEI. Compounds are initially tested in a single point assay to determine percent inhibition at 10 μM. Subsequently, Ki values are determined for compounds defined to be active.
% inhibition and Ki values generated by GraphPad Prism and Excel Fit. IC50 values are calculated using GraphPad by fitting to a 1 or 2 site-binding model. Ki values are calculated from the apparent IC50 values using the Cheng-Prussof equation:
(§1) where [L]=concentration of free radioligand and Kd=dissociation constant of radioligand for the receptor. TITLE: Identification of metabotropic glutamate receptor 5 antagonists using a stable, sensitive fluorescence-based screening system PURPOSE: The aim of the research presented here was to develop a robust functional assay to measure changes in intracellular calcium, with the goal of identifying potent mGluR5 antagonists.

[1] = target: T2, metabotropic glutamate receptor 5 (Rattus norvegicus, UniProt P31424); assay: FLIPR Calcium 3 fluorescence-based functional assay of intracellular calcium, mGluR5 antagonist activity; format: cell-based; conditions: inhibition of glutamate (EC90, ~50 uM) stimulated calcium levels, mGluR5 HEK-293 cells; read-out: mGluR5 FLIPR MP Antagonist DR IC50
T2 construct: expressed in transfected cells; host or cells: HEK-293
T2 sequence (P31424 21-1203): as above
Description: as §1
The FLIPR Calcium 3 Assay Kit is designed to work with many cell types, both adherent and non-adherent. Optimal cell conditions for the FLIPR Calcium 3 Assay Kit require the creation of a confluent cell monolayer before placing the plates in FLIPR or FlexStation. In general, we start with 50,000 mGluR5 HEK-293 cells/well for a 96-well plate. For adherent cells, seeding cells overnight with a plating volume of 100 μL/well worked for 96-well plates.
Remove cell plates from the incubator. Remove the supernatant medium. Add 180 ul of Loading Buffer to each well (for 96-well plates). HBSS buffer component B) pipette 100 mL of 10× Hank's Balanced Salt Solution and 20 mL of 1M Hepes buffer
Incubate cell plates for 1 hour at 37° C. and then keep the plates at room temperature until used.
After incubation, transfer the plates directly to FLIPR and begin the calcium assay as described in the FLIPR system manual. For a signal test, a starting average count of ˜10,000 is recommended. Recommended experimental setup parameters are as follows. Faster addition speeds can lead to better mixing of compounds and lower signal variance across the plate.
Test or reference compound is added to the 96-well plate (manually). […] Relative Fluorescence Units (RFUs) are recorded over a given time period (stated above) depending on the platform system used.
For antagonists, results are expressed as % inhibition of glutamate stimulated Calcium levels. IC50 values were calculated by Prism GraphPad using a 4-parameter logistic equation. IC50 values are calculated using GraphPad by fitting to a 1 site-model.

Row | Molecule | Ki (rat mGluR5 receptor) [nM] | IC50 [1] [nM]
1 | COc1ccc2c(c1)CCN(C(=O)c1ccc(OC)c(C#Cc3ccccn3)c1)C2 [Example 31, 6-methoxy-2-[4-methoxy-3-(pyridin-2-ylethynyl)benzoyl]-1,2,3,4-tetrahydroisoquinoline] | 8 | 61
2 | COc1ccc(C(=O)N2Cc3cnc(C)cc3C2)cc1C#Cc1ccccn1 [Example 41, 2-[4-methoxy-3-(pyridin-2-ylethynyl)benzoyl]-6-methyl-2,3-dihydro-1H-pyrrolo[3,4-c]pyridine] | 26 | 12
3 | O=C(c1ccc(C(F)(F)F)c(C#Cc2ccccn2)c1)N1CCc2ncc(Br)cc2C1 [Example 97, 3-Bromo-6-{[3-(pyridin-2-ylethynyl)-4-(trifluoromethyl)phenyl]carbonyl}-5,6,7,8-tetrahydro-1,6-naphthyridine] | 1 | 13
4 | Cc1ccc(C(=O)N2CCc3[nH]ncc3C2)cc1C#Cc1ccccn1 [Example 88, 5-{[4-methyl-3-(pyridin-2-ylethynyl)phenyl]carbonyl}-4,5,6,7-tetrahydro-1H-pyrazolo[4,3-c]pyridine] | 6 | 4
5 | 7-fluoro-2-[4-methoxy-3-(pyridin-2-ylethynyl)benzoyl]-1,2,3,4-tetrahydroisoquinoline [Example 9] | 3 | 23
6 | O=C(c1ccc(F)c(C#Cc2ccccn2)c1)N1CCc2ccccc2C1 [Example 71, 2-[4-Fluoro-3-(pyridin-2-ylethynyl)benzoyl]-1,2,3,4-tetrahydroisoquinoline] | 5 | 67
7 | COc1ccc(C(=O)N2Cc3cnc(C)c(C)c3C2)cc1C#Cc1ccccn1 [Example 42, 2-[4-methoxy-3-(pyridin-2-ylethynyl)benzoyl]-6,7-dimethyl-2,3-dihydro-1H-pyrrolo[3,4-c]pyridine] | 20 | 28
8 | COc1ccc(C(=O)N2Cc3ccccc3C(CNc3ccccc3)C2)cc1C#Cc1ccccn1 (stereo not shown) [Example 29, N-({2-[4-methoxy-3-(pyridin-2-ylethynyl)benzoyl]-1,2,3,4-tetrahydroisoquinolin-4-yl}methyl)aniline] | 68 | 447
9 | COc1ccc(C(=O)N2CCc3c(Cl)cc(Cl)cc3C2)cc1C#Cc1ccccn1 [Example 7, 5,7-dichloro-2-[4-methoxy-3-(pyridin-2-ylethynyl)benzoyl]-1,2,3,4-tetrahydroisoquinoline] |  | 176
10 | O=C(c1ccc(Cl)c(C#Cc2ccccn2)c1)N1Cc2ccccc2C1 [Example 60, 2-[4-Chloro-3-(pyridin-2-ylethynyl)benzoyl]isoindoline] | 1 | 6
11 | COc1ccc(C(=O)N2CCc3c(F)ccc(F)c3C2)cc1C#Cc1ccccn1 [Example 6, 5,8-difluoro-2-[4-methoxy-3-(pyridin-2-ylethynyl)benzoyl]-1,2,3,4-tetrahydroisoquinoline] | 2 | 52
12 | O=C(c1ccc(Cl)c(C#Cc2ccccn2)c1)N1CCc2c(F)ccc(F)c2C1 [Example 63, 2-{[4-chloro-3-(pyridin-2-ylethynyl)phenyl]carbonyl}-5,8-difluoro-1,2,3,4-tetrahydroisoquinoline] | 0.2 | 14
13 | O=C(c1ccc(C(F)(F)F)c(C#Cc2ccccn2)c1)N1Cc2ccncc2C1 [Example 102, 2-{[3-(Pyridin-2-ylethynyl)-4-(trifluoromethyl)phenyl]carbonyl}-2,3-dihydro-1H-pyrrolo[3,4-c]pyridine] | 120 | 
14 | O=C(c1ccc(Cl)c(C#Cc2ccccn2)c1)N1CCc2ccc(F)cc2C1 [Example 70, 2-{[4-chloro-3-(pyridin-2-ylethynyl)phenyl]carbonyl}-7-fluoro-1,2,3,4-tetrahydroisoquinoline] | 0.4 | 37
15 | Cc1ccc(C(=O)N2Cc3ccccc3C2)cc1C#Cc1ccccn1 [Example 81, 2-[4-Methyl-3-(pyridin-2-ylethynyl)benzoyl]isoindoline] | 1 | 26
16 | COc1ccc(C(=O)N2CCc3ncc(C)cc3C2)cc1C#Cc1ccccn1 [Example 40, 6-[4-methoxy-3-(pyridin-2-ylethynyl)benzoyl]-3-methyl-5,6,7,8-tetrahydro-1,6-naphthyridine] | 22 | 21
17 | Cc1nc2c(s1)CN(C(=O)c1ccc(C)c(C#Cc3ccccn3)c1)CC2 [Example 89, 2-methyl-5-{[4-methyl-3-(pyridin-2-ylethynyl)phenyl]carbonyl}-4,5,6,7-tetrahydro[1,3]thiazolo[5,4-c]pyridine] | 4 | 4
18 | COc1ccc(C(=O)N2Cc3ccccc3C2CC(C)(C)O)cc1C#Cc1ccccn1 (stereo not shown) [Example 17, 1-{2-[4-methoxy-3-(pyridin-2-ylethynyl)benzoyl]-2,3-dihydro-1H-isoindol-1-yl}-2-methylpropan-2-ol] | 612 | 
19 | O=C(c1ccc(C(F)(F)F)c(C#Cc2ccccn2)c1)N1CCc2cccnc2C1 [Example 99, 7-{[3-(Pyridin-2-ylethynyl)-4-(trifluoromethyl)phenyl]carbonyl}-5,6,7,8-tetrahydro-1,7-naphthyridine] | 34 | 
20 | COc1ccc(C(=O)N2CCc3nc[nH]c(=O)c3C2)cc1C#Cc1ccccn1 [Example 15, 6-[4-methoxy-3-(pyridin-2-ylethynyl)benzoyl]-5,6,7,8-tetrahydropyrido[4,3-d]pyrimidin-4(3H)-one] | 96 | 
21 | COc1ccc(C(=O)N2CCn3c(nnc3C(F)(F)F)C2)cc1C#Cc1ccccn1 [Example 49, 7-{[4-methoxy-3-(pyridin-2-ylethynyl)phenyl]carbonyl}-3-(trifluoromethyl)-5,6,7,8-tetrahydro[1,2,4]triazolo[4,3-a]pyrazine] | 269 | 
22 | COc1ccc(C(=O)N2Cc3ccccc3C(Oc3ccc(C(F)(F)F)cc3)C2)cc1C#Cc1ccccn1 (stereo not shown) [Example 24, 2-[4-methoxy-3-(pyridin-2-ylethynyl)benzoyl]-4-[4-(trifluoromethyl)phenoxy]-1,2,3,4-tetrahydroisoquinoline] | 520 | 
23 | COc1ccc(C(=O)N2CCc3ccccc3C2Cc2ccccc2)cc1C#Cc1ccccn1 (stereo not shown) [Example 30, 1-benzyl-2-[4-methoxy-3-(pyridin-2-ylethynyl)benzoyl]-1,2,3,4-tetrahydroisoquinoline] | 327 | 
24 | COc1ccc(C(=O)N2CCNc3ccccc3C2)cc1C#Cc1ccccn1 [Example 56, 4-{[4-methoxy-3-(pyridin-2-ylethynyl)phenyl]carbonyl}-2,3,4,5-tetrahydro-1H-1,4-benzodiazepine] | 112 | 
25 | COc1ccc(C(=O)N2C3CCC2c2ccccc23)cc1C#Cc1ccccn1 [Example 18, 9-[4-methoxy-3-(pyridin-2-ylethynyl)benzoyl]-1,2,3,4-tetrahydro-1,4-epiminonaphthalene] | 1120 | 
26 | O=C(c1ccc(OCC2CC2)c(C#Cc2ccccn2)c1)N1Cc2ccccc2C1 [Example 80, 2-{[4-(Cyclopropylmethoxy)-3-(pyridin-2-ylethynyl)phenyl]carbonyl}-2,3-dihydro-1H-isoindole] | 189 | 
27 | COc1ccc(C(=O)N2CCc3ccccc3[C@H]2[C@@H]2CCCO2)cc1C#Cc1ccccn1 [Example 28, (1S)-2-[4-methoxy-3-(pyridin-2-ylethynyl)benzoyl]-1-[(2S)-tetrahydrofuran-2-yl]-1,2,3,4-tetrahydroisoquinoline] | 178 | 
28 | COc1ccc(C(=O)N2CCc3cccc(C4CCN(S(C)(=O)=O)CC4)c3C2)cc1C#Cc1ccccn1 [Example 23, 2-[4-methoxy-3-(pyridin-2-ylethynyl)benzoyl]-8-[1-(methylsulfonyl)piperidin-4-yl]-1,2,3,4-tetrahydroisoquinoline] | > 10000 | 
